Results reported in patent US10357477B2, “Anticancer compounds” (REGENTS OF THE UNIVERSITY OF MINNESOTA, priority 2016, dated 2019).

Key:
Panc-1 cells = experiment: Cell viability assay (MTT) in Panc-1 cells; assay type: cell-based; details: Homo sapiens, antiproliferative activity, 72 h
Experimental: Panc-1 cells are maintained in RPMI 1640 (Invitrogen 11875) media supplemented with 10% FBS, 1% Penicillin/Streptomycin and 1% Glutamax-1. Cells were plated in 96-well plates at 25×10^4 cells/ml. After 24 hours, compounds were added at 9, 3× dilutions in triplicate from 100 uM final concentration in the appropriate growth media. Plates were incubated for 72 hours at 37° C. in a 5% CO2/95% air humidified atmosphere after which time the media was removed and MTT was added in RPMI phenol red free media. The MTT was removed after 3 hours and formazan crystals were solubilized with 200 μL of isopropanol. Plates were read on a Molecular Devices SpectraMax i3 spectrophotometer at 570 nm for formazan and 690 nm for background subtraction. EC50 values were calculated by fitting the data in GraphPad Prism software.

MIA PaCa-2 cells = experiment: Cell viability assay (MTT) in MIA PaCa-2 cells; assay type: cell-based; details: Homo sapiens, antiproliferative activity, 72 h
Experimental: MIA PaCa-2 cells (CRL-1420, ATCC) were maintained in DMEM media supplemented with 10% FBS, 2.5% HS, 1% GlutaMAX, 1% sodium pyruvate, 100 U/mL penicillin, and 100 μg/mL streptomycin. Cell culture media and additives were purchased from Gibco. Cells were plated in 96-well plates at |1−2.5|×10^4 cells per well in the DMEM growth media. One microliter of a 2-fold serially diluted compound solution in DMSO (Sigma) starting at 20 mM (100 μM final concentration) was added to each well. The final volume in each well was 200 μL, yielding a final DMSO concentration of 0.5%. Control wells contained 0.5% DMSO (100% viability) or 25% DMSO (background) and all reactions were done in triplicate. The plate was incubated for 72 h at 37° C. in a 5% CO2/95% air humidified atmosphere.
Measurement of cell viability was carried out using a modified method of Mosmann based on 3-(4,5-dimethylthiazol-2-yl)-2,5-diphenyltetrazolium bromide (MTT, Sigma). MTT solution was prepared fresh at 1 mg/mL in serum-free and phenol red-free RPMI 1640 media. After 200 μL of MTT solution was added to each well, the plate was incubated as described above for 3 h. The MTT solution was removed, and the formazan crystals were solubilized with 200 μL of isopropanol. The plate was read on a SpectraMax i3 spectrophotometer (Molecular Devices) at 570 nm for formazan and 650 nm for background subtraction. EC50 values were calculated by fitting the data in GraphPad Prism software. EC50 values were determined in triplicate.

Row | EC50 (Panc-1 cells) [µM] | EC50 (MIA PaCa-2 cells) [µM] | SMILES
1 | 6.9 | 3.1 | CNC(=O)c1cccc(Cn2nc(C)c(NC(=O)c3ccc(COc4ccc(F)cc4)cc3)c2C)c1 [Compound D6c, 3-((4-(4-((4-Fluorophenoxy)methyl)benzamido)-3,5-dimethyl-1H-pyrazol-1-yl)methyl)-N-methylbenzamide]
2 | 3 | 5.6 | CNC(=O)c1cccc(Cn2nc(C)c(NC(=O)c3ccc(COc4ccccc4F)cc3)c2C)c1 [Compound D6a, 3-((4-(4-((2-Fluorophenoxy)methyl)benzamido)-3,5-dimethyl-1H-pyrazol-1-yl)methyl)-N-methylbenzamide]
3 | 11 | 9.2 | Cc1nn(Cc2cccc(C(N)=O)c2)c(C)c1NC(=O)c1ccc(COc2ccccc2)cc1 [Compound A2b, N-(1-(3-Carbamoylbenzyl)-3,5-dimethyl-1H-pyrazol-4-yl)-4-(phenoxymethyl)benzamide]
4 | 1.2 | 6.4 | Cc1nn(Cc2cccc(C(=O)N(C)C)c2)c(C)c1NC(=O)c1ccc(COc2ccccc2)cc1 [Compound A4a, 3-((3,5-Dimethyl-4-(4-(phenoxymethyl)benzamido)-1H-pyrazol-1-yl)methyl)-N,N-dimethylbenzamide]
5 | 13 | 2.6 | CNC(=O)c1cccc(Cn2nc(C)c(NC(=O)c3ccc(COc4ccc(C)cc4)cc3)c2C)c1 [Compound D3c, 3-((3,5-Dimethyl-4-(4-((p-tolyloxy)methyl)benzamido)-1H-pyrazol-1-yl)methyl)-N-methylbenzamide]
6 | 8.5 | 12 | CNC(=O)c1cccc(Cn2nc(C)c(NC(=O)c3ccc(COc4ccccc4C#N)cc3)c2C)c1 [Compound D7a, 3-((4-(4-((2-Cyanophenoxy)methyl)benzamido)-3,5-dimethyl-1H-pyrazol-1-yl)methyl)-N-methylbenzamide]
7 | 44 | > 100 | Cc1nn(Cc2ccc(N)cc2)c(C)c1NC(=O)c1ccc(COc2ccccc2)cc1 [Compound A6a, N-(1-(4-Aminobenzyl)-3,5-dimethyl-1H-pyrazol-4-yl)-4-(phenoxymethyl)benzamide]
8 | 20 | 11 | Cc1nn(Cc2cccc([N+](=O)[O-])c2)c(C)c1NC(=O)c1ccc(COc2ccccc2)cc1 [Compound A5b, N-(3,5-Dimethyl-1-(3-nitrobenzyl)-1H-pyrazol-4-yl)-4-(phenoxymethyl)benzamide]
9 | > 100 | 42 | Cc1nn(Cc2ccccc2C(N)=O)c(C)c1NC(=O)c1ccc(COc2ccccc2)cc1 [Compound A2c, N-(1-(2-Carbamoylbenzyl)-3,5-dimethyl-1H-pyrazol-4-yl)-4-(phenoxymethyl)benzamide]
10 | 9.7 | 35 | Cc1nn(Cc2cccc(N)c2)c(C)c1NC(=O)c1ccc(COc2ccccc2)cc1 [Compound A6b, N-(1-(3-Aminobenzyl)-3,5-dimethyl-1H-pyrazol-4-yl)-4-(phenoxymethyl)benzamide]
11 | 0.56 | 6.2 | CNC(=O)c1cccc(Cn2nc(C)c(NC(=O)c3ccc(COc4cccc(C)c4)cc3)c2C)c1 [Compound D3b, 3-((3,5-Dimethyl-4-(4-((m-tolyloxy)methyl)benzamido)-1H-pyrazol-1-yl)methyl)-N-methylbenzamide]
12 | 0.038 | 5.9 | CNC(=O)c1cccc(Cn2nc(C)c(NC(=O)c3ccc(COc4cccc(Cl)c4)cc3)c2C)c1 [Compound D5b, 3-((4-(4-((3-Chlorophenoxy)methyl)benzamido)-3,5-dimethyl-1H-pyrazol-1-yl)methyl)-N-methylbenzamide]
13 | 0.21 | 7.7 | CNC(=O)c1cccc(Cn2nc(C)c(NC(=O)c3ccc(COc4cccc(F)c4)cc3)c2C)c1 [Compound D6b, 3-((4-(4-((3-Fluorophenoxy)methyl)benzamido)-3,5-dimethyl-1H-pyrazol-1-yl)methyl)-N-methylbenzamide]
14 | 1.6 | 11 | CCNC(=O)c1cccc(Cn2nc(C)c(NC(=O)c3ccc(COc4ccccc4)cc3)c2C)c1 [Compound A4b, 3-((3,5-Dimethyl-4-(4-(phenoxymethyl)benzamido)-1H-pyrazol-1-yl)methyl)-N-ethylbenzamide]
15 | 36 | 12 | CNC(=O)c1ccc(Cn2nc(C)c(NC(=O)c3ccc(COc4ccccc4)cc3)c2C)cc1 [Compound A3a, N-(3,5-Dimethyl-1-(4-(methylcarbamoyl)benzyl)-1H-pyrazol-4-yl)-4-(phenoxymethyl)benzamide]
16 | 9 | 10 | Cc1nn(Cc2ccccc2)c(C)c1NC(=O)c1ccc(COc2ccccc2)cc1 [Compound A1, N-(1-Benzyl-3,5-dimethyl-1H-pyrazol-4-yl)-4-(phenoxymethyl)benzamide]
17 | – | 2.4 | CNC(=O)c1cccc(C(C)n2nc(C)c(NC(=O)c3ccc(COc4ccc(C(F)(F)F)cc4C)cc3)c2C)c1 (stereo not drawn) [Compound F3, 3-(1-(3,5-Dimethyl-4-(4-((2-methyl-4-(trifluoromethyl)phenoxy)methyl)benzamido)-1H-pyrazol-1-yl)ethyl)-N-methylbenzamide]
18 | – | 4.6 | CNC(=O)c1cccc(Cn2nc(C)c(NC(=O)c3ccc(Oc4ccc(C(F)(F)F)cc4)cc3)c2C)c1 [Compound E6b, 3-((3,5-Dimethyl-4-(4-(4-(trifluoromethyl)phenoxy)-benzamido)-1H-pyrazol-1-yl)methyl)-N-methylbenzamide]
19 | – | 7.7 | CNC(=O)c1cccc(C(C)n2nc(C)c(NC(=O)c3ccc(COc4ccccc4)cc3)c2C)c1 (stereo not drawn) [Compound F2, 3-(1-(3,5-Dimethyl-4-(4-(phenoxymethyl)benzamido)-1H-pyrazol-1-yl)ethyl)-N-methylbenzamide]
20 | – | 17 | CNC(=O)c1cccc(Cn2nc(C)c(N(C)C(=O)c3ccc(COc4ccccc4)cc3)c2C)c1 [Compound B1, N-(3,5-Dimethyl-1-(3-(methylcarbamoyl)benzyl)-1H-pyrazol-4-yl)-N-methyl-4-(phenoxymethyl)benzamide]
21 | – | 4 | CNC(=O)c1cc(C(C)n2nc(C)c(NC(=O)c3ccc(COc4ccc(C(F)(F)F)cc4C)cc3)c2C)ccn1 (stereo not drawn) [Compound F4, 4-(1-(3,5-Dimethyl-4-(4-((2-methyl-4-(trifluoromethyl)phenoxy)methyl)benzamido)-1H-pyrazol-1-yl)ethyl)-N-methylpicolinamide]
22 | – | 9.7 | CNC(=O)c1cccc(Cn2nc(C)c(NC(=O)c3ccc(COc4ccc([N+](=O)[O-])cc4)cc3)c2C)c1 [Compound D8c, 3-((3,5-Dimethyl-4-(4-((4-nitrophenoxy)methyl)benzamido)-1H-pyrazol-1-yl)methyl)-N-methylbenzamide]
23 | – | 8.1 | CNC(=O)c1cc(Cn2nc(C)c(NC(=O)c3ccc(Oc4ccc(C(F)(F)F)cc4)cc3)c2C)ccn1 [Compound E7a, 4-((3,5-Dimethyl-4-(4-(4-(trifluoromethyl)phenoxy)-benzamido)-1H-pyrazol-1-yl)methyl)-N-methylpicolinamide]
24 | – | 14 | CNC(=O)c1cccc(Cn2nc(C)c(NC(=O)c3ccc(COC4CCCCC4)cc3)c2C)c1 [Compound C7, 3-((4-(4-((Cyclohexyloxy)methyl)benzamido)-3,5-dimethyl-1H-pyrazol-1-yl)methyl)-N-methylbenzamide]
25 | – | 24 | CNC(=O)c1cccc(Cn2nc(C)c(NC(=O)c3ccc(COc4cccnc4)cc3)c2C)c1 [Compound G2, 3-((3,5-Dimethyl-4-(4-((pyridin-3-yloxy)methyl)benzamido)-1H-pyrazol-1-yl)methyl)-N-methylbenzamide]
26 | – | 22 | CNC(=O)c1cccc(Cn2nc(C)c(NC(=O)c3ccc(C(C)Oc4ccccc4)cc3)c2C)c1 (stereo not drawn) [Compound F1, 3-((3,5-Dimethyl-4-(4-(1-phenoxyethyl)benzamido)-1H-pyrazol-1-yl)methyl)-N-methylbenzamide]
27 | – | 25 | CNC(=O)c1cccc(Cn2nc(C)c(NS(=O)(=O)c3ccc(COc4ccccc4)cc3)c2C)c1 [Compound B3, 3-((3,5-Dimethyl-4-((4-(phenoxymethyl)phenyl)sulfonamido)-1H-pyrazol-1-yl)methyl)-N-methylbenzamide]
28 | – | 6.7 | CNC(=O)c1cccc(Cn2nc(C)c(NC(=O)c3ccc(COc4ccc(C(F)(F)F)cc4C)nc3)c2C)c1 [Compound E5a, N-(3,5-Dimethyl-1-(3-(methylcarbamoyl)benzyl)-1H-pyrazol-4-yl)-6-((2-methyl-4-(trifluoromethyl)phenoxy)methyl)nicotinamide]
29 | – | 32 | CNC(=O)c1cccc(Cn2nc(C)c(NC(=O)c3cccc(COc4ccccc4)c3)c2C)c1 [Compound C6, N-(3,5-Dimethyl-1-(3-(methylcarbamoyl)benzyl)-1H-pyrazol-4-yl)-3-(phenoxymethyl)benzamide]
